Like-named read-outs stand apart in the source and are kept apart here.
How the values were obtained:
Format in all cases: cell-based
[1] = system: HBsAg; assay: HBsAg, multiplex assay, HBV-infected PHH; details: for IC50: Hepatitis B virus, read-out: HBsAg IC50 (μM) Median, PHH, patient-derived HBV (GT D)
Experimental: (§1) Fresh primary human hepatocytes (PXB-PHH) harvested from humanized mice (uPA/SCID mice)—herein called PHH—were obtained from PhoenixBio Co., Ltd (Japan). Cells were seeded on a collagen I-coated plate at the following cell density: 35,000 cells/well (384-well), 70,000 cells/well (96-well), or, 400,000 cells/well (24-well) in modified hepatocyte clonal growth medium (dHCGM). dHCGM is a DMEM medium containing 100 U/ml Penicillin, 100 μg/ml Streptomycin, 20 mM Hopes, 44 mM NaHCO3, 15 μg/ml L-proline, 0.25 μg/ml insulin, 50 nM Dexamethazone, 5 ng/ml EGF, 0.1 mM Asc-2P, 2% DMSO and 10% FBS (Ishida et al., 2015). Cells were cultured at 37° C. incubator in a humidified atmosphere with 5% CO2. Culture medium was replaced 24 h post-plating and every 2 days until harvest.
(§2) Following 4 day of maturation with 1 μM MB-1, HLC were incubated with HBV (purified from CHB individuals) at multiplicity of infection (MOI) 10-40 without PEG for 24 hr; virus inoculum was removed the following day. […] Compound treatment in HLC and PHH was started at day 3 post infection. Compound (in powder) was dissolved in DMSO; the final concentration of DMSO added to cells is 1%. Fresh compound was replenished every 2 day until cells were harvested at day 10 (PHH), or day 14 (HLC). Compound effect on HBV and cellular toxicity was measured by multiplex assay (HBsAg, HBeAg, albumin), branched DNA (pgRNA), or digital PCR (cccDNA) and depicted as % of inhibition compared to DMSO control. Graphs were prepared using Spotfire software.
(§3) A custom, Luminex-based multiplex assay that simultaneously measured HBeAg, albumin, and HBsAg was developed by Radix BioSolutions (Georgetown, Tex.). This is a sandwich immunoassay; each capture antibody was coupled with xMAP™ Luminex magnetic beads. The dynamic ranges of analyte detection are as follows: HBeAg (1-316 ng/ml), albumin (3.1-10,000 ng/ml), and HBsAg (0.1-100 ng/ml) with coefficient variant (CV) […]. Samples were read on FlexMAP 3D (Luminex) and analyzed by Genedata software.

[2] = system: HBeAg; assay: HBeAg, multiplex assay, HBV-infected PHH; details: for IC50: Hepatitis B virus, read-out: HBeAg IC50 (μM) Median, PHH, patient-derived HBV (GT D)
Experimental: as §1, §2, §3

[3] = system: pgRNA; assay: pgRNA assay (branched DNA), HBV-infected PHH; details: patient-derived HBV (GT D), read-out: pgRNA IC50 (μM) Median
Experimental: as §1, §2
Levels of pgRNA in infected cells (96-well plate) were measured using QuantiGene Singleplex 2.0 assay (Affymetrix), a hybridization-based assay that utilizes the xMAP™ Luminex magnetic beads and branched DNA (bDNA) signal amplification technology. The assay is performed in 96-well plate according to manufacturer's recommendation. Briefly, cells were lysed and lysates were incubated with HBV probe sets panel at 50-55° C. for 30 min then stored at −80° C. Signal amplification is achieved via sequential hybridization of PreAmplifier, Amplifier, and Label Probe. After adding Streptavidin phycoerythrin (SAPE) substrate, the signal is read using a FlexMap 3D (Luminex) instrument.

[4] = system: cccDNA; assay: cccDNA assay (digital PCR), HBV-infected PHH; details: for IC50: Hepatitis B virus, patient-derived HBV (GT D), read-out: cccDNA IC50 (μM) Median
Experimental: as §1
Following 4 day of maturation with 1 μM MB-1, HLC were incubated with HBV (purified from CHB individuals) at multiplicity of infection (MOI) 10-40 without PEG for 24 hr; virus inoculum was removed the following day. HBV infection in PHH was performed at MOI 40+4% PEG. Compound treatment in HLC and PHH was started at day 3 post infection. Compound (in powder) was dissolved in DMSO; the final concentration of DMSO added to cells is 1%. Fresh compound was replenished every 2 day until cells were harvested at day 10 (PHH), or day 14 (HLC). Compound effect on HBV and cellular toxicity was measured by multiplex assay (HBsAg, HBeAg, albumin), branched DNA (pgRNA), or digital PCR (cccDNA) and depicted as % of inhibition compared to DMSO control. Graphs were prepared using Spotfire software.
HBV-infected cells (in 384- or 96-well plate) were lysed with Cells-to-CT Lysis Reagents according to manufacturer's instruction (Thermo Scientific). To remove excess of RC-DNA, samples were digested with T5 exonuclease (10 U) (New England Biolabs), at 37° C. for 1 hr; enzyme was inactivated by heating the samples at 80° C. for 15 min. DNA samples (1.2 μl) were added into the digital PCR Master Mix (QuantStudio Digital PCR Kit, Thermo Scientific) containing cccDNA primers 5′-[…] (forward), 5′-[…] (reverse), and […] (probe) (Werle-Lapostolle et al., 2004) in a total volume 5 μl, and loaded into dPCR array using AccuFill System (AB). Each sample was loaded into 4 subarrays/256 through-holes. Digital PCR assay was run on QuantStudio 12K Flex (AB) and data was analyzed by Digital Suite Software (AB).

[5] = system: albumin (secreted, cellular toxicity marker); assay: Albumin (in vitro cellular tox marker), multiplex assay, PHH; details: human, primary human hepatocytes (PXB-PHH) infected with HBV, patient-derived HBV (GT D), read-out: In vitro tox albumin IC50 (μM) Median
Experimental: as §1, §2, §3

[6] = system: HBV DNA; assay: HBV DNA in culture medium of HBV-infected PHH; details: PHH, patient-derived HBV GT D, MOI 40, treatment from day 3, day 10 pi
From the text: FIG. 8: Establishment of dPCR assay for cccDNA quantification. […] A 3.2-kb, linearized plasmid HBV is used as a standard curve for relative quantification of HBV DNA by TaqMan-PCR. […] (B) Testing primer & PCR specificity and removal of excess RC-DNA. In contrast to TaqMan-PCR (relative quantification method), digital PCR (dPCR) is an absolute quantification method without the need of standard curve. […] First step—Testing primer and PCR specificity. Serum-derived HBV (contains RC-DNA, devoid of cccDNA) was used as a DNA template for dPCR using 2 sets of primers (for HBV core and cccDNA region) (Werle-Lapostolle et al., 2004). Samples were amplified by dPCR on QuantStudio 12K Flex Real-Time PCR System (AB); 4 subarrays (256 through-holes) were used for each sample. […] Second step—Removal of excess RC-DNA. PHH seeded in 96-well were infected with HBV. At day 6 pi, cell lysates were digested with Plasmid safe, ATP-dependent, DNAse (PSAD), T5 exonuclease, or, T5 exonuclease followed by EcoRI, for 1 hr at 37° C. Samples were amplified by dPCR using cccDNA primers on QuantStudio 12K Flex Real-Time PCR System (AB); 4 subarrays (256 through-holes) were used for each sample. […] Fresh medium and compound was replenished every 2 day. At day 10 pi, culture media were harvested and measured for HBV DNA, HBsAg, and HBeAg. Albumin was used as a surrogate of in vitro tox marker. Cells were lysed and treated with T5 exonuclease, cccDNA was then measured by dPCR on QuantStudio 12K Flex Real-Time PCR System (AB); 4 subarrays (256 through-holes) were used for each sample. […] Cells were treated with compounds at the indicated concentrations starting from day 3 post infection (patient-derived HBV, GT D). Fresh medium and compound was replenished every 2 day. Cells were harvested at day 10 pi; viral markers and albumin were measured from culture medium.
HBV from sera of CHB individuals were purified using OptiPrep™ (Axis-Shield, Norway) density gradient. Briefly, OptiPrep™ stock solution (60%) was diluted to 50% and 10% in PBS; equal volume of each solution was then added into SW41 tubes (BD Biosciences). Linear gradient was performed by placing the tubes on Gradient Master 108™ (Biocomp) at setting: 800, 25 rpm for 30″. Two hundred microliter (200 μl) of serum was overlaid on the top of gradient and samples were centrifuged at 100,000×g for 2 hours at 4° C. […] Fractions containing the peak of HBV DNA were pooled and used as virus inoculum for all infection experiments. All fractions were stored at −80° C. until used.
Fresh primary human hepatocytes (PXB-PHH) harvested from humanized mice (uPA/SCID mice)—herein called PHH—were obtained from PhoenixBio Co., Ltd (Japan).

[7] = PHH, patient-derived HBV GT D, MOI 40, treatment from day 3, day 10 pi

Compound: CC(C)(CO)NC(=O)c1c[nH]c2ncc(C3CC3)nc12 [compound 1]
- IC50 [1]: 0.17 µM
- IC50 [2]: 0.17 µM
- IC50 ([3]; Hepatitis B virus): 14.2 µM
- IC50 [4]: 52.7 µM
- IC50 at 7 days [5]: 18.7 µM

Compound: C=C1[C@H](CO)[C@@H](O)C[C@@H]1n1cnc2c(=O)[nH]c(N)nc21 [entecavir, reference compound]
- effect on HBsAg (other viral markers) [1, 7]: no effect
- effect on HBeAg (other viral markers) [2, 7]: no effect
- effect on HBV DNA [6]: highly potent
- effect on cccDNA (other viral markers) ([4]; patient-derived HBV GT D, MOI 40, treatment from day 3, day 10 pi, dPCR): no effect

Compound: C[C@@H](CO)NC(=O)c1c[nH]c2ncc(C3CC3)nc12 [compound 8]
- IC50 [1]: 1.22 µM
- IC50 [2]: 2.29 µM
- IC50 [4]: 30.8 µM
- IC50 at 7 days [5]: 31.9 µM

Compound: O=C(NC1(CO)CCOCC1)c1c[nH]c2ncc(C3CC3)nc12 [compound 6]
- IC50 [1]: 0.75 µM
- IC50 [2]: 0.49 µM
- IC50 ([3]; Hepatitis B virus): 15.7 µM
- IC50 [4]: ≥ 166 µM
- IC50 at 7 days [5]: ≥ 166 µM

Compound: C[C@H](CO)NC(=O)c1c[nH]c2ncc(C3CC3)nc12 [compound 5]
- IC50 [1]: 5.61 µM
- IC50 [2]: 2.95 µM
- IC50 ([3]; Hepatitis B virus): ≥ 100 µM
- IC50 [4]: 160 µM
- IC50 at 7 days [5]: 135 µM

Compound: CC(C)(O)C(C)(C)NC(=O)c1c[nH]c2ncc(C3CC3)nc12 [compound 9]
- IC50 [1]: 0.51 µM
- IC50 [2]: 0.68 µM
- IC50 [4]: 49.2 µM
- IC50 at 7 days [5]: 21.3 µM

Compound: CC[C@@H](CO)NC(=O)c1c[nH]c2ncc(C3CC3)nc12 [compound 4]
- IC50 [1]: 0.68 µM
- IC50 [2]: 0.68 µM
- IC50 ([3]; Hepatitis B virus): < 10 µM
- IC50 [3]: 6.93 µM
- IC50 [4]: 63.7 µM
- IC50 at 7 days [5]: 48 µM

Compound: O=C(NC1(CO)CCCC1)c1c[nH]c2ncc(C3CC3)nc12 [compound 2]
- IC50 [1]: 0.68 µM
- IC50 [2]: 0.68 µM
- IC50 [4]: 30.1 µM
- IC50 at 7 days [5]: 24.2 µM

Compound: CC(C)(O)C(CCO)NC(=O)c1c[nH]c2ncc(C3CC3)nc12 (stereo not drawn) [compound 3]
- IC50 [1]: 3.62 µM
- IC50 [2]: 3.58 µM
- IC50 ([3]; Hepatitis B virus): 12.8 µM
- IC50 [4]: 43.7 µM
- IC50 at 7 days [5]: 33.4 µM

Source: patent publication US20230248723A1, “PYRROLO[2,3-B]PYRAZINE COMPOUNDS AS CCCDNA INHIBITORS FOR THE TREATMENT OF HEPATITIS B VIRUS (HBV) INFECTION” (Hoffmann-La Roche Inc., priority 2017, published 2023)
